Results: the supplement of paper PMC11061612

How the values were obtained:
[1] = tested on: RVH-421 (Melanoma); assay: combination Emax (second highest fraction inhibited in the dose matrix, 72 h); higher = more inhibition; extreme values may be limits of the assay
Summary of the method: (§1)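 Bliss excess equals the observed combination effect minus the expected value EA + EB − EA·EB, where EA and EB are the effects of each agent alone. Combination Emax is the second-highest inhibition within the matrix. Inhibition was scaled from CellTiter-Glo 2.0 luminescence, with 0 set by vehicle wells and 1 by blank wells, after 72 hours of two-drug dosing of cells plated in 1536-well plates.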

[2] = tested on: KNS-62 (Squamous Cell Lung Carcinoma); assay: Bliss excess, mean over the matrix (fraction); higher = more synergy
Summary of the method: as §1

[3] = tested on: L-363 (Plasma Cell Myeloma); assay: as above
Summary of the method: as §1

[4] = tested on: MDA-MB-175-VII (Breast Carcinoma); assay: as above
Summary of the method: as §1

[5] = tested on: NCI-H1048 (Small Cell Lung Carcinoma); assay: as above
Summary of the method: as §1

[6] = tested on: HT-1197 (Bladder Carcinoma); assay: as above
Summary of the method: as §1

[7] = tested on: RPMI-8402 (T-Lymphoblastic Leukemia); assay: as above
Summary of the method: as §1

[8] = tested on: SNU-1 (Gastric Carcinoma); assay: as above
Summary of the method: as §1

[9] = tested on: NCI-H1944 (Lung Adenocarcinoma); assay: as above
Summary of the method: as §1

[10] = tested on: OCI-M1 (Acute Myeloid Leukemia); assay: as above
Summary of the method: as §1

[11] = tested on: BT-474 (Breast Carcinoma); assay: as above
Summary of the method: as §1

[12] = tested on: NCI-H2170 (Squamous Cell Lung Carcinoma); assay: as above
Summary of the method: as §1

[13] = tested on: RVH-421 (Melanoma); assay: as above
Summary of the method: as §1

[14] = tested on: SBC-3 (Small Cell Lung Carcinoma); assay: as above
Summary of the method: as §1

[15] = tested on: GRANTA-519 (B-Cell Non-Hodgkin's Lymphoma); assay: as above
Summary of the method: as §1

[16] = tested on: ATN-1 (T-Lymphoblastic Leukemia); assay: as above
Summary of the method: as §1

[17] = tested on: C2BBe1 (Colorectal Carcinoma); assay: as above
Summary of the method: as §1

[18] = tested on: SK-N-DZ (Neuroblastoma); assay: as above
Summary of the method: as §1

Row | SMILES | combination Emax [1] | Bliss excess [2] | Bliss excess [3] | Bliss excess [4] | Bliss excess [5] | Bliss excess [6] | Bliss excess [7] | Bliss excess [8] | Bliss excess [9] | Bliss excess [10] | Bliss excess [11] | Bliss excess [12] | Bliss excess [13] | Bliss excess [14] | Bliss excess [15] | Bliss excess [16] | Bliss excess [17] | Bliss excess [18]
1 | CN(CCO)CC[C@H](CSc1ccccc1)Nc1ccc(S(=O)(=O)NC(=O)c2ccc(N3CCC([C@@H](O)c4ccccc4-c4ccc(Cl)cc4)CC3)cc2)cc1S(=O)(=O)C(F)(F)F [AZD4320] + C1CN(CCC1(C(=O)N[C@@H](CCO)C2=CC=C(C=C2)Cl)N)C3=NC=NC4=C3C=CN4 [Capivasertib] (first compound max 1 µM, 7x7, partner max 3 µM) | 0.486 | -0.0637 | 0.0659 | 0.0425 | 0.0513 | 0.0311 | 0.0394 | -0.0441 | -0.0508 | -0.0161 | -0.0487 | -0.023 | -0.0454 | -0.0793 | -0.0649 | -0.0802 | -0.0214 | -0.0417
2 | CN(CCO)CC[C@H](CSc1ccccc1)Nc1ccc(S(=O)(=O)NC(=O)c2ccc(N3CCC([C@@H](O)c4ccccc4-c4ccc(Cl)cc4)CC3)cc2)cc1S(=O)(=O)C(F)(F)F [AZD4320] + CCN(CCO)CCCOc1ccc2c(Nc3cc(CC(=O)Nc4cccc(F)c4)[nH]n3)ncnc2c1 [AZD2811] (first compound max 1 µM, 7x7, partner max 1 µM) | 0.196 | -0.0204 | -0.015 | 0.0289 | 0.139 | -0.016 | 0.0501 | 0.0461 | 0.0026 | 0.0074 | 0.0081 | -0.051 | -0.0297 | 0.0224 | 0.191 | 0.0082 | -0.0326 | 0.0087
3 | CN(CCO)CC[C@H](CSc1ccccc1)Nc1ccc(S(=O)(=O)NC(=O)c2ccc(N3CCC([C@@H](O)c4ccccc4-c4ccc(Cl)cc4)CC3)cc2)cc1S(=O)(=O)C(F)(F)F [AZD4320] + C[C@@H]1COCCN1C2=NC(=NC(=C2)C3(CC3)[S@](=N)(=O)C)C4=C5C=CNC5=NC=C4 [AZD6738] (first compound max 1 µM, 7x7, partner max 10 µM) | 0.387 | -0.0338 | -0.007 | -0.0429 | 0.0634 | -0.0672 | 0.031 | -0.0343 | -0.0227 | 0.0051 | -0.0901 | -0.0478 | -0.0511 | -0.0184 | -0.0075 | 0.0273 | -0.14 | -0.0559
4 | CN(CCO)CC[C@H](CSc1ccccc1)Nc1ccc(S(=O)(=O)NC(=O)c2ccc(N3CCC([C@@H](O)c4ccccc4-c4ccc(Cl)cc4)CC3)cc2)cc1S(=O)(=O)C(F)(F)F [AZD4320] + C[C@@H](Nc1cc(F)cc(F)c1)c1cc(C(=O)N(C)C)cc2c(=O)cc(N3CCOCC3)oc12 [AZD8186] (first compound max 1 µM, 7x7, partner max 3 µM) | 0.464 | 0.0068 | 0.0753 | 0.0271 | 0.0388 | 0.0598 | 0.0715 | -0.0024 | -0.0426 | 0.0278 | 0.0516 | 0.0284 | 0.0798 | -0.0093 | 0.0128 | -0.0214 | 0.0231 | -0.0302
5 | CN(CCO)CC[C@H](CSc1ccccc1)Nc1ccc(S(=O)(=O)NC(=O)c2ccc(N3CCC([C@@H](O)c4ccccc4-c4ccc(Cl)cc4)CC3)cc2)cc1S(=O)(=O)C(F)(F)F [AZD4320] + Cc1cc2ncnn2cc1Nc1ncc2c(n1)n(C1CCOCC1)c(=O)n2C [AZD7648] (first compound max 1 µM, 7x7, partner max 10 µM) | 0.211 | -0.0628 | 0.0181 | -0.0145 | 0.0256 | -0.0497 | 0.0194 | 0.0237 | 0.0102 | 0.0138 | -0.0628 | -0.006 | -0.0345 | -0.0767 | 0.0049 | 0.0479 | -0.0403 | -0.0362
6 | CN(CCO)CC[C@H](CSc1ccccc1)Nc1ccc(S(=O)(=O)NC(=O)c2ccc(N3CCC([C@@H](O)c4ccccc4-c4ccc(Cl)cc4)CC3)cc2)cc1S(=O)(=O)C(F)(F)F [AZD4320] + Nc1ccn([C@@H]2O[C@H](CO)[C@@H](O)C2(F)F)c(=O)n1 [Gemcitabine] (first compound max 1 µM, 7x7, partner max 0.3 µM) |  | -0.0024 | 0.0563 | 0.125 |  |  | -0.0457 |  |  |  |  |  |  | 0.0194 |  |  |  | 
7 | Cc1cc2ncnn2cc1Nc1ncc2c(n1)n(C1CCOCC1)c(=O)n2C [AZD7648] + C=CCn1c(=O)c2cnc(Nc3ccc(N4CCN(C)CC4)cc3)nc2n1-c1cccc(C(C)(C)O)n1 [AZD1775] (first compound max 10 µM, partner max 1 µM) | 0.289 | 0.0584 | 0.0185 | -0.0282 | -0.0505 | -0.0553 | -0.0213 | -0.0572 | -0.0005 | -0.044 | 0.0103 | -0.0972 | 0.0039 | -0.0374 | -0.0126 | -0.0176 | -0.0115 | 0.0207
